This is an account of results in patent publication US20120202794A1 (priority 2011, published 2012).

Each structure is given as a SMILES string. A value given as a limit tells only on which side of the number the result lay.

The nature of data set [1]: Cell cytotoxicity assay (MTS), CC90 as reported in Table 1, cell line not stated. In kind it is cell-based. The following applies: human; MTS assay; 8 days incubation; cell line not given. A digest of the protocol:
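Compounds, serially diluted from 100 μM, were incubated 8 days at 37° C with Huh7, HepG2 or BxPC3 (2×10^3 cells/well) or CEM (5×10^3 cells/well). Viability was read by MTS, 2 h, absorbance 490 nm. CC90 (90% inhibition) was taken against untreated cells.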
Background: Formazan colour is commonly taken as a measure of viable cells.

Data set [2] has as its system HCV Replicon 1b. As to the kind of experiment: HCV inhibition assay, HCV replicon 1b (Clone A or ET-lunet cells; RT-PCR or luciferase reporter). In kind it is cell-based. The settings on record: Hepatitis C virus, 96 h, HCV replicon 1b; 4 days incubation; read-out: Replicon 1b potency EC90. A digest of the protocol: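 Clone A (1500/well) or ET-lunet (3000/well) replicon cells treated with serially diluted compounds (0.5% DMSO, no G418) for 4 days at 37 °C. HCV RNA measured by one-step RT-PCR normalized to rRNA (ΔΔCt) or by luciferase luminescence versus DMSO controls; EC50/EC90 by curve fitting.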
Background: A replicon is a self-replicating genome or part of one, used to study replication in cells.

For `CC(C)C[C@H]1C(=O)N[C@@H](C2CCCCC2)CN1C(=O)c1cc(-c2ccc(Cl)cc2)no1` [Compound 315, (3S,6S)-4-(3-(4-chlorophenyl)isoxazole-5-carbonyl)-6-cyclohexyl-3-isobutylpiperazin-2-one], in data set [1], the CC90 at 8 days was greater than 10000 nM. The EC90 in data set [2] came to 700 nM.
In data set [1], `CC(C)C[C@H]1C(=O)N[C@@H](c2ccccc2)CN1C(=O)c1cc(-c2ccc(Cl)cc2)no1` [Compound 316, (3S,6S)-4-(3-(4-chlorophenyl)isoxazole-5-carbonyl)-3-isobutyl-6-phenylpiperazin-2-one] displayed a CC90 at 8 days greater than 10000 nM. The EC90 in data set [2] is 280 nM.
As for `CC(C)CC1=CN(C(=O)c2cc(-c3ccc(F)cc3)on2)[C@@H](CC(C)C)C(=O)N1` [Compound 317, (S)-4-(5-(4-Fluorophenyl)isoxazole-3-carbonyl)-3,6-diisobutyl-3,4-dihydro-pyrazin-2(1H)-one], the CC90 at 8 days in data set [1] was greater than 10000 nM. The EC90 in data set [2] was 280 nM.
In data set [1], `CC(C)C[C@H]1C(=O)N(C)[C@@H](c2ccccc2)CN1C(=O)c1cc(-c2ccc(F)cc2)on1` [Compound 321, (3S,6S)-4-(5-(4-fluorophenyl)isoxazole-3-carbonyl)-3-isobutyl-1-methyl-6-phenylpiperazin-2-one] gave a CC90 at 8 days greater than 10000 nM. In data set [2], the EC90 worked out at 6450 nM.
The like results for `CCN1C(=O)[C@H](CC(C)C)N(C(=O)c2cc(-c3ccc(F)cc3)on2)C[C@@H]1c1ccccc1` [Compound 322, (3S,6S)-1-ethyl-4-(5-(4-fluorophenyl)isoxazole-3-carbonyl)-3-isobutyl-6-phenylpiperazin-2-one] were, in that order, greater than 10000 nM and greater than 10000 nM.
With `CCCN1C(=O)[C@H](CC(C)C)N(C(=O)c2cc(-c3ccc(F)cc3)on2)C[C@@H]1c1ccccc1` [Compound 323, (3S,6S)-4-(5-(4-fluorophenyl)isoxazole-3-carbonyl)-3-isobutyl-6-phenyl-1-propylpiperazin-2-one], the CC90 at 8 days in data set [1] was greater than 10000 nM. The EC90 in data set [2] is greater than 10000 nM.
Turning to `CC(C)C[C@H]1C(=O)N[C@@H](C2CCCC2)CN1C(=O)[C@@H]1C[C@H]1c1ccc(F)cc1F` [Compound 325, (3S,6S)-6-cyclopentyl-4-((1R,2R)-2-(2,4-difluorophenyl)cyclopropanecarbonyl)-3-isobutylpiperazin-2-one], the CC90 at 8 days in data set [1] was greater than 10000 nM. Further, the 90% effect concentration (EC90) in data set [2] is greater than 10000 nM.
The compound `CC(C)C[C@H]1C(=O)N[C@@H](C2CCCCC2)CN1C(=O)[C@@H]1C[C@H]1c1ccc(F)cc1F` [Compound 326, (3S,6S)-6-cyclohexyl-4-((1R,2R)-2-(2,4-difluorophenyl)cyclopropanecarbonyl)-3-isobutylpiperazin-2-one] returned a CC90 at 8 days in data set [1] greater than 10000 nM. Moreover, the EC90 in data set [2] was greater than 10000 nM.
Compound `CC(C)C[C@H]1C(=O)N[C@@H](c2ccccc2)CN1C(=O)[C@@H]1C[C@H]1c1ccc(F)cc1F` [Compound 327, (3S,6S)-4-[(1R,2R)-2-(2,4-difluoro-phenyl)-cyclopropanecarbonyl]-3-isobutyl-6-phenyl-piperazin-2-one] yielded a CC90 at 8 days in data set [1] greater than 10000 nM. Further, the 90% effect concentration (EC90) in data set [2] was found to be 7210 nM.
The like results for `CC(C)C[C@H]1C(=O)N[C@@H](C2CCCCC2)CN1C(=O)[C@@H]1C[C@H]1c1ccc(C(C)(C)C)cc1` [Compound 328, (3S,6S)-4-((1R,2R)-2-(4-(tert-butyl)phenyl)cyclopropanecarbonyl)-6-cyclohexyl-3-isobutylpiperazin-2-one] were, in that order, greater than 10000 nM and 2430 nM.
The like results for `CC(C)C[C@H]1CN(C(=O)[C@@H]2C[C@H]2c2ccc(Br)cc2)[C@@H](CC(C)C)C(=O)N1` [Compound 329, (3S,6S)-4-((1R,2R)-2-(4-bromophenyl)cyclopropanecarbonyl)-3,6-diisobutylpiperazin-2-one] were, in that order, greater than 10000 nM and 520 nM.
With `CCC[C@H]1CN(C(=O)[C@@H]2C[C@H]2c2ccc(Br)cc2)[C@@H](CC(C)C)C(=O)N1` [Compound 331, (3S,6S)-4-[(1R,2R)-2-(4-Bromo-phenyl)-cyclopropanecarbonyl]-3-isobutyl-6-propyl-piperazin-2-one], in data set [1], the CC90 at 8 days is greater than 10000 nM. The EC90 in data set [2] is 560 nM.
The like results for `CC(C)C[C@H]1C(=O)N[C@@H](c2ccccc2)CN1C(=O)[C@@H]1C[C@H]1c1ccc(Br)cc1` [Compound 333, (3S,6S)-4-[(1R,2R)-2-(4-bromo-phenyl)-cyclopropanecarbonyl]-3-isobutyl-6-phenyl-piperazin-2-one] were, in that order, greater than 10000 nM and 646 nM.
The like results for `CCC[C@H]1CN(C(=O)[C@@H]2C[C@H]2c2ccc(C(C)(C)C)cc2)[C@@H](CC(C)C)C(=O)N1` [Compound 334, (3S,6S)-4-((1R,2R)-2-(4-(tert-butyl)phenyl)cyclopropanecarbonyl)-3-isobutyl-6-propyl-pylpiperazin-2-one] were, in that order, greater than 10000 nM and 900 nM.
The compound `O=C1N[C@@H](c2ccccc2)CN(C(=O)c2cc(-c3ccc(F)cc3)on2)[C@H]1CC1CC1` [Compound 336, (3S,6S)-3-(cyclopropylmethyl)-4-(5-(4-fluorophenyl)isoxazole-3-carbonyl)-6-phenylpiperazin-2-one] gave a CC90 at 8 days in data set [1] greater than 10000 nM. In data set [2], the EC90 was 360 nM.
The like results for `O=C1N[C@@H](c2ccccc2)CN(C(=O)[C@@H]2C[C@H]2c2ccccc2)[C@H]1CC1CC1` [Compound 338, (3S,6S)-3-(cyclopropylmethyl)-6-phenyl-4-((1R,2R)-2-phenylcyclopropanecarbonyl)-piperazin-2-one] were, in that order, greater than 10000 nM and 5070 nM.
The like results for `CC[C@@H](C)[C@H]1C(=O)N[C@@H](c2ccccc2)CN1C(=O)c1cc(-c2ccc(F)cc2)on1` [Compound 339, (3S,6S)-3-((R)-sec-butyl)-4-(5-(4-fluorophenyl)isoxazole-3-carbonyl)-6-phenylpiperazin-2-one] were, in that order, greater than 10000 nM and 800 nM.
The like results for `CC[C@@H](C)[C@H]1C(=O)N[C@@H](c2ccccc2)CN1C(=O)[C@@H]1C[C@H]1c1ccccc1` [Compound 341, (3S,6S)-3-((R)-sec-butyl)-6-phenyl-4-((1R,2R)-2-phenylcyclopropanecarbonyl)-piperazin-2-one] were, in that order, greater than 10000 nM and 2540 nM.
`CC(C)(C)C[C@H]1C(=O)N[C@@H](c2ccccc2)CN1C(=O)c1cc(-c2ccc(F)cc2)on1` [Compound 342, (3S,6S)-4-(5-(4-fluorophenyl)isoxazole-3-carbonyl)-3-neopentyl-6-phenylpiperazin-2-one] had a CC90 at 8 days in data set [1] greater than 10000 nM. The EC90 in data set [2] turned out to be 200 nM.
In data set [1], `CC(C)(C)C[C@H]1C(=O)N[C@@H](c2ccccc2)CN1C(=O)[C@@H]1C[C@H]1c1ccccc1` [Compound 344, (3S,6S)-3-neopentyl-6-phenyl-4-((1R,2R)-2-phenylcyclopropanecarbonyl)piperazin-2-one] had a CC90 at 8 days greater than 10000 nM. In addition, in data set [2], the concentration for an effect of 90% (EC90) turned out to be 1000 nM.
The like results for `CC(C)C[C@H]1C(=O)N[C@@H](c2ccc(F)cc2)CN1C(=O)c1cc(-c2ccc(F)cc2)on1` [Compound 345, (3S,6S)-6-(4-fluorophenyl)-4-(5-(4-fluorophenyl)isoxazole-3-carbonyl)-3-isobutyl-piperazin-2-one] were, in that order, greater than 10000 nM and 650 nM.
Turning to `CC(C)C[C@H]1C(=O)N[C@@H](c2ccc(F)cc2)CN1C(=O)[C@@H]1C[C@H]1c1ccccc1` [Compound 347, (3S,6S)-6-(4-fluorophenyl)-3-isobutyl-4-((1R,2R)-2-phenylcyclopropanecarbonyl)-piperazin-2-one], in data set [1], the CC90 at 8 days is greater than 10000 nM. Further, the EC90 in data set [2] is 2050 nM.
The compound `Cc1ccc([C@H]2CN(C(=O)c3cc(-c4ccc(F)cc4)on3)[C@@H](CC(C)C)C(=O)N2)cc1` [Compound 348, (3S,6S)-4-(5-(4-fluorophenyl)isoxazole-3-carbonyl)-3-isobutyl-6-(p-tolyl)piperazin-2-one] came in with a CC90 at 8 days in data set [1] greater than 10000 nM. Moreover, in data set [2], the concentration for an effect of 90% (EC90) was found to be 1800 nM.
As for `CC(C)C[C@H]1CN(C(=O)c2cn(-c3ccc(Cl)cc3)nn2)[C@@H](CC(C)C)C(=O)N1` [Compound 350, (3S,6S)-4-(1-(4-chlorophenyl)-1H-1,2,3-triazole-4-carbonyl)-3,6-diisobutylpiperazin-2-one], the CC90 at 8 days in data set [1] was greater than 10000 nM. The EC90 in data set [2] is 1960 nM.
The like results for `CC(C)C[C@H]1CN(C(=O)c2cn(-c3ccc(F)cc3)nn2)[C@@H](CC(C)C)C(=O)N1` [Compound 351, (3S,6S)-4-(1-(4-fluorophenyl)-1H-1,2,3-triazole-4-carbonyl)-3,6-diisobutylpiperazin-2-one] were, in that order, greater than 10000 nM and 1630 nM.
With `CC(C)C[C@H]1C(=O)N[C@@H](c2ccccc2Cl)CN1C(=O)c1cc(-c2ccc(F)cc2)on1` [Compound 352, (3S,6S)-6-(2-chlorophenyl)-4-(5-(4-fluorophenyl)isoxazole-3-carbonyl)-3-isobutyl-piperazin-2-one], in data set [1], the CC90 at 8 days is greater than 10000 nM. Besides, in data set [2], the EC90 was 210 nM.
The like results for `CC(C)C[C@H]1C(=O)N[C@@H](c2ccccc2Cl)CN1C(=O)[C@@H]1C[C@H]1c1ccccc1` [Compound 354, (3S,6S)-6-(2-chlorophenyl)-3-isobutyl-4-((1R,2R)-2-phenylcyclopropanecarbonyl)-piperazin-2-one] were, in that order, greater than 10000 nM and 1850 nM.
The like results for `CC(C)C[C@H]1C(=O)N[C@@H](c2ccccc2F)CN1C(=O)[C@@H]1C[C@H]1c1ccccc1` [Compound 357, (3S,6S)-6-(2-fluorophenyl)-3-isobutyl-4-((1R,2R)-2-phenylcyclopropanecarbonyl)-piperazin-2-one] were, in that order, greater than 10000 nM and 520 nM.

A word on the EC90: it is the concentration at which the effect reaches the 90% level.
